# Calls of active or inactive are those of the source. The rule behind the calls is not given here.
# System: host cell cytotoxicity, % cell control, HIV fusion counter-screen
# Test: cytotoxicity of HIV-1 entry inhibitor leads – cell-based, cytotoxicity control for CCR5-tropic HIV-1 fusion inhibitors, dose response (AID 504388)
row,Structure (SMILES),CC50
1,COc1ccc(-n2cccc2/C=C2/C(=N)N3C(=NC2=O)SN=C3S(C)(=O)=O)cc1Cl,96 µM
2,CCOC(=O)C1=C(C)N=c2sc(=Cc3ccc(OCC(=O)O)cc3)c(=O)n2C1c1ccc(F)cc1 (centres undefined),63 µM
3,COc1ccc(CCn2c(O)cc3nn(-c4nc5ccccc5s4)c(=O)c-3c2C)cc1,36.4 µM
4,Cc1c2c(=O)n(-c3nc4ccccc4s3)nc-2cc(O)n1Cc1cccnc1,7.3 µM
5,O=C(O)c1ccc(C2Nc3ccc(S(=O)(=O)Nc4cc(Cl)ccc4Cl)cc3C3C=CCC32)cc1 (centres undefined),85.6 µM
6,O=C(O)c1ccc(C[n+]2c(-c3ccc([N+](=O)[O-])cc3)csc2Nc2ccccc2)cc1,> 100 µM (inactive)
7,CCOC(=O)C1=C(C)N=c2sc(=Cc3ccc(OCC(=O)O)cc3)c(=O)n2C1c1ccc(OC)cc1OC (centres undefined),55.8 µM
8,CS(=O)(=O)C1=NSC2=NC(=O)/C(=C\c3cccn3-c3ccc(Cl)cc3)C(=N)N21,39.7 µM
9,CCOC(=O)C1=C(c2ccccc2)N=c2s/c(=C\c3ccc(OCC(=O)O)cc3)c(=O)n2C1c1cccc(OC)c1 (centres undefined),51.5 µM
10,CCc1ccc(-c2ccc(/C=C3\SC(=S)N(CCCC(=O)O)C3=O)o2)cc1,> 100 µM (inactive)
11,O=C(O)CCCN1C(=O)/C(=C/c2ccc(-c3ccc(Cl)c(Cl)c3)o2)SC1=S,18.3 µM
12,Cc1c2c(=O)n(-c3nc4ccccc4s3)nc-2cc(O)n1CCC(C)C,36.5 µM
13,Cc1c2c(=O)n(-c3nc4ccccc4s3)nc-2cc(O)n1C1CC1,6 µM
14,CS(=O)(=O)C1=NSC2=NC(=O)/C(=C\c3cccn3-c3cccc(C(F)(F)F)c3)C(=N)N21,53.9 µM
15,Cc1c2c(=O)n(-c3nc4ccccc4s3)nc-2cc(O)n1Cc1cccs1,42.5 µM
16,COc1ccccc1NS(=O)(=O)c1ccc2c(c1)C1C=CCC1C(c1ccc(C(=O)O)cc1)N2 (centres undefined),70.9 µM
17,O=C(O)CCCN1C(=O)/C(=C/c2ccc(-c3cccc(C(F)(F)F)c3)o2)SC1=S,92.8 µM
18,O=C(O)CCCN1C(=O)/C(=C\c2ccc(-c3ccc(Cl)cc3)o2)SC1=S,37.5 µM
19,O=C(O)CCCN1C(=O)/C(=C\c2ccc(-c3cccc(Cl)c3)o2)SC1=S,51.1 µM
20,Cc1ccc(-n2cccc2/C=C2/C(=N)N3C(=NC2=O)SN=C3S(C)(=O)=O)cc1,39.5 µM
21,O=C(O)c1ccc(C[n+]2c(-c3ccccc3)csc2Nc2ccccc2)cc1,75.2 µM
22,Cc1c2c(=O)n(-c3nc4ccccc4s3)nc-2cc(O)n1Cc1ccc(F)cc1,38.5 µM
23,Cc1ccc(-n2cccc2/C=C2/C(=N)N3C(=NC2=O)SN=C3S(C)(=O)=O)cc1C,32.7 µM
24,COc1ccc(Cn2c(O)cc3nn(-c4nc5ccccc5s4)c(=O)c-3c2C)cc1,39.4 µM
25,O=C(O)CCCN1C(=O)/C(=C\c2ccc(-c3ccc(F)cc3)o2)SC1=S,88.2 µM

row,Structure (SMILES),CC50
1,CS(=O)(=O)C1=NSC2=NC(=O)/C(=C\c3cccn3-c3cc(Cl)cc(Cl)c3)C(=N)N21,51.9 µM
2,CCOC(=O)C1=C(C)N=c2sc(=Cc3ccc(OCC(=O)O)cc3)c(=O)n2C1c1ccccc1 (centres undefined),62.2 µM
3,CS(=O)(=O)C1=NSC2=NC(=O)/C(=C\c3cccn3-c3cccc(F)c3)C(=N)N21,48.5 µM
4,CS(=O)(=O)C1=NSC2=NC(=O)/C(=C\c3cccn3-c3ccc(Br)cc3)C(=N)N21,36.9 µM
5,Cc1c2c(=O)n(-c3nc4ccccc4s3)nc-2cc(O)n1CCc1ccc(O)cc1,27.2 µM
6,CCOC(=O)C1=C(C)N=c2s/c(=C\c3ccc(OCC(=O)O)cc3)c(=O)n2C1c1ccc(Cl)cc1 (centres undefined),38.3 µM
7,Cc1c2c(=O)n(-c3nc4ccccc4s3)nc-2cc(O)n1Cc1ccccc1Cl,23.5 µM
8,Nc1sc2ccccc2[n+]1Cc1ccc(C(=O)O)cc1,> 100 µM (inactive)
9,COc1ccc(-c2ccc(/C=C3\SC(=S)N(CCCC(=O)O)C3=O)o2)cc1,78.6 µM
10,COc1ccccc1Cn1c(O)cc2nn(-c3nc4ccccc4s3)c(=O)c-2c1C,36.6 µM
11,CS(=O)(=O)C1=NSC2=NC(=O)/C(=C\c3cccn3-c3ccc(F)cc3)C(=N)N21,36.3 µM
12,CCc1ccc(-n2cccc2/C=C2/C(=N)N3C(=NC2=O)SN=C3S(C)(=O)=O)cc1,30.7 µM
13,O=C(O)CCCN1C(=O)/C(=C\c2ccc(-c3ccc(Br)cc3)o2)SC1=S,7.36 µM
14,CCOc1ccc(-n2cccc2/C=C2/C(=N)N3C(=NC2=O)SN=C3S(C)(=O)=O)cc1,40.2 µM
15,CCOC(=O)C1=C(C)N=c2s/c(=C\c3ccc(OCC(=O)O)cc3)c(=O)n2C1c1ccc(OC)c(OCC)c1 (centres undefined),71.9 µM
16,CS(=O)(=O)C1=NSC2=NC(=O)/C(=C\c3cccn3-c3cccc(Cl)c3)C(=N)N21,36.5 µM
17,COc1cccc(C2C(C(=O)Nc3ccccc3)=C(C)N=c3sc(=Cc4ccc(OCC(=O)O)cc4)c(=O)n32)c1 (centres undefined),> 100 µM (inactive)
18,O=C(O)c1ccc([C@@H]2Nc3ccc(S(=O)(=O)Nc4cccc5ccccc45)cc3[C@@H]3C=CC[C@@H]32)cc1,68.9 µM
19,Cc1c2c(=O)n(-c3nc4ccccc4s3)nc-2cc(O)n1Cc1ccncc1,5.17 µM
20,CC1=C(C(=O)OC(C)C)C(c2ccc(Cl)cc2)n2c(s/c(=C\c3ccc(OCC(=O)O)cc3)c2=O)=N1 (centres undefined),> 100 µM (inactive)
21,CS(=O)(=O)C1=NSC2=NC(=O)/C(=C\c3cccn3-c3ccc(Cl)c(Cl)c3)C(=N)N21,39.4 µM
22,Cc1c2c(=O)n(-c3nc4ccccc4s3)nc-2cc(O)n1CCc1cccs1,> 100 µM (inactive)
23,O=C(O)CCC(C(=O)O)N1C(=O)/C(=C\c2ccco2)SC1=S (centres undefined),> 100 µM (inactive)
24,COc1cccc(-n2cccc2/C=C2/C(=N)N3C(=NC2=O)SN=C3S(C)(=O)=O)c1,> 100 µM (inactive)

# — PubChem BioAssay AID504388 (Southern Research Specialized Biocontainment Screening …, 2011)
